Key:
Bmal1::dluc U2OS cells = experiment: Real-time monitoring of circadian rhythm, Bmal1::dluc U2OS; type: cell-based, human
Description: We used Bmal1::dluc U2-OS and Per1::dluc NIH 3T3, and continuously monitored the bioluminescence to record circadian rhythm. This experiment was performed in 96-well plates (triplicates) and 35-mm dishes (duplicates) in the secondary screen and detailed characterization steps respectively. Briefly, cells were seeded to reach confluency. A day after, the medium was replaced with DMEM containing 0.1 μM Dexamethasone to synchronize cells. Two hour later, 0.1 mM of Luciferin was freshly added to the recording medium (low glucose DMEM powder (with L-glutamine) supplemented with 10 mM HEPES, […] sodium bicarbonate, 3.5 mg/ml D-(+)-glucose powder, 5% FBS, 0.1 mM NEAA, 100 U/ml penicillin and […]). Then, the medium was replaced with recording medium containing appropriate amount of each compound. Control cells were treated with 0.5% vehicle (DMSO). For a detailed characterization of CLK8, whenever required, and without any further medium change, small molecule treatment was postponed to two days after bioluminescence recording started. The 96-well plates were covered and bioluminescence was monitored by Synergy H1 Hybrid Multi-Mode Reader every 32 minutes. Similarly, we sealed the 35-mm plates with vacuum grease prior to mounting them on a LumiCycle luminometer (Actimetrics). Bioluminescence was recorded every 10 minutes for 4-6 days. Raw data (counts/sec) were plotted against time. The period and amplitude parameters were obtained using LumiCycle Analysis software (Actimetrics). First, the raw data was baseline fitted (n=1), and then the baseline-subtracted data was fitted to a sine wave (damped). The first day's data was excluded from the analysis due to transient perturbations of luminescence after the medium change.
We used Bmal1::dluc U2-OS and Per1::dluc NIH 3T3, and continuously monitored the bioluminescence to record circadian rhythm. This experiment was performed in 96-well plates (triplicates) and 35-mm dishes (duplicates) in the secondary screen and detailed characterization steps respectively. Briefly, cells were seeded to reach confluency. A day after, the medium was replaced with DMEM containing 0.1 μM Dexamethasone to synchronize cells. Two hour later, 0.1 mM of Luciferin was freshly added to the recording medium (low glucose DMEM powder (with L-glutamine) supplemented with 10 mM HEPES, 0.35 mg/ml sodium bicarbonate, 3.5 mg/ml D-(+)-glucose powder, 5% FBS, 0.1 mM NEAA, 100 U/ml penicillin and […]). […] The 96-well plates were covered and bioluminescence was monitored by Synergy H1 Hybrid Multi-Mode Reader every 32 minutes. […] Bioluminescence was recorded every 10 minutes for 4-6 days. […] The first day's data was excluded from the analysis due to transient perturbations of luminescence after the medium change.

[1] = target: T1, CLOCK-F80A-K220A and BMAL1 interaction (Homo sapiens, UniProt O15516, F80A/K220A); experiment: Co-immunoprecipitation of FLAG-CLOCK-F80A-K220A and BMAL1; type: biochemical; conditions: 40 μM
T1 construct: expressed in transfected cells; host or cells: HEK 293T
T1 sequence (O15516 1-846 F80A/K220A): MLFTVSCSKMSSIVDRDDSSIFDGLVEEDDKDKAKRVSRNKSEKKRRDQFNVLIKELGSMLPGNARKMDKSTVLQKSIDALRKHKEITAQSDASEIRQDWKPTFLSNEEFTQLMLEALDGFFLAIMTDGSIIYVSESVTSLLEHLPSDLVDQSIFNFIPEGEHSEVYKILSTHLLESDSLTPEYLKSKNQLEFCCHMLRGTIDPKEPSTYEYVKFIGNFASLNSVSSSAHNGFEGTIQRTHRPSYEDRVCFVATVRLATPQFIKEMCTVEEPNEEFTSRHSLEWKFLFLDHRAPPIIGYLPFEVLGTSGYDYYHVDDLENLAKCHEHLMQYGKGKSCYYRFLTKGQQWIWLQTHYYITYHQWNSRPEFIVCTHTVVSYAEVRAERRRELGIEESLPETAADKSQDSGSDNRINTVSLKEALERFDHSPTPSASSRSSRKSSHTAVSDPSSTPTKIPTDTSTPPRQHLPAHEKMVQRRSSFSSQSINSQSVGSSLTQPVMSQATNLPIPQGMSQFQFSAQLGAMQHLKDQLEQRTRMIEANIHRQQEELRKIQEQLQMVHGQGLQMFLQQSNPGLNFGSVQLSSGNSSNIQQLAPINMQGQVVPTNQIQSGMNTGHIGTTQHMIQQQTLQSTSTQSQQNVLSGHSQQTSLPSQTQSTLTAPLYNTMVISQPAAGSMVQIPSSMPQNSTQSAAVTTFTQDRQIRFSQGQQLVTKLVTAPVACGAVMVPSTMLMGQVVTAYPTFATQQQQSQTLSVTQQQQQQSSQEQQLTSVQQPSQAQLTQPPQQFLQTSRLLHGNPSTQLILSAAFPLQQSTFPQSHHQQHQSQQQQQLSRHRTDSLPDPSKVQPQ
Description: HEK 293T cells co-expressing wild type or F80A-K220A mutant FLAG-tagged Clock together with tag-free Bmal1 were lysed with ice-cold lysis buffer (50 mM Tris-HCl PH 7.7, 150 mM NaCl, 0.1% Triton X-100, 1 mM PMSF and protease inhibitor cocktail) and centrifuged at 15000×g at 4° C. for 20 minutes. DMSO and different concentrations of CLK8 were added to the whole cell lysate. The mixtures were incubated with anti-FLAG M2 affinity gel (Sigma-Aldrich) at 4° C. overnight with continuous mixing. After three wash steps, bound proteins were eluted with Laemmli buffer heated at 95° C. for 7 minutes. CLOCK and BMAL1 were detected by monoclonal anti-FLAG M2 antibody (Sigma-Aldrich) and anti-BMAL1 (Santa Cruz Biotechnology) respectively. The amount of co-precipitated BMAL1 was normalized with the amount of precipitated CLOCK.
HEK 293T cells co-expressing wild type or F80A-K220A mutant FLAG-tagged Clock together with tag-free Bmal1 were lysed with ice-cold lysis buffer (50 mM Tris-HCl pH 7.7, 150 mM NaCl, 0.1% Triton X-100, 1 mM PMSF and protease inhibitor cocktail) and centrifuged at 15000×g at 4° C. for 20 minutes. DMSO and different concentrations of CLK8 were added to the whole cell lysate. […] CLOCK and BMAL1 were detected by monoclonal anti-FLAG M2 antibody (Sigma-Aldrich) and anti-BMAL1 (Santa Cruz Biotechnology) respectively. […]

- interaction between CLOCK-F80A-K220A and BMAL1 [1]: not affected
Structure (SMILES): CC1(C)CCc2c(cc(OCC(=O)Nc3ccccc3C(N)=O)c3c(-c4ccccc4)cc(=O)oc23)O1 [CLK8, 2-[2-({12,12-dimethyl-4-oxo-6-phenyl-3,11-dioxatricyclo [8.4.0.0,2,7]tetradeca-1,5,7,9-tetraen-8-yl}oxy)acetamido] benzamide]
- enhancement of amplitude (Bmal1::dluc U2OS cells; 10 μM, treated two days after synchronization): more than 50%
- period of circadian rhythm (Bmal1::dluc U2OS cells; U2OS-Bmal1::dLuc): no period changes
- amplitude of circadian rhythm (Bmal1::dluc U2OS cells; U2OS-Bmal1::dLuc, dose dependent): enhances the amplitude
- phase of the first trough after treatment (Bmal1::dluc U2OS cells; treated two days after synchronization, vs DMSO control): advanced the phase of the first trough

— US12558342B2, “2-[2-({12,12-dimethyl-4-oxo-6-phenyl-3,11-dioxatricyclo[8.4.0.0,2,7]tetradeca-1,5,7,9-tetraen-8-yl}oxy)acetamido]benzamide and derivatives as inhibitor of clock:bmal1 interaction for the treatment of circadian rhythm diseases and disorders” (KOC UNIVERSITESI, priority 2019, dated 2026)
